Earlier results, collected in US7393852B2, “Piperazine derivatives and methods of use” (Amgen Inc., priority 2003, dated 2008).
Peptide text beside a SMILES is read from it.

SMILES: NC(N)=NCCC[C@H](NC(=O)[C@H](Cc1ccccc1)NC(=O)[C@@H]1CCCN1C(=O)[C@H](CO)NC(=O)[C@H](Cc1ccccc1)NC(=O)CNC(=O)[C@@H]1CCCN1C(=O)[C@@H]1CCCN1C(=O)[C@@H](N)CCCN=C(N)N)C(=O)O [BK, Bradykinin] (H-RPPGFSPFR-OH)
- half-life of BK in plasma: approximately 17 seconds
